Test results published in US10202340B2, “Glucosylceramide synthase inhibitors and therapeutic methods using the same” (THE REGENTS OF THE UNIVERSITY OF MICHIGAN, priority 2015, dated 2019).
Where a name gives a salt, the structure may show the parent alone. Read-outs that look alike come from different tables or passages of the source.

How the values were obtained:
[1] = Mouse liver microsome stability; type: in vitro ADME; details: mouse liver microsomes; read-out: Mouse liver microsome t1/2
Experimental: Selected compounds were incubated with mouse liver microsomes to assess their stability to oxidative metabolism by cytochrome P450 enzymes (Table 1).

[2] = molecular target: glucosylceramide synthase (GCS) (Canis lupus familiaris, UniProt A0A8I3MXG6); test: GCS activity, broken cell assay (inhibition of GlcCer synthesis in broken wild-type MDCK cell preparations); type: biochemical, canine; details: mean of n > 2 experiments
Experimental: Enzyme activity was measured as described previously (9). Madin-Darby canine kidney (MDCK) cell homogenates (120 μg of protein) were incubated with uridine diphosphate-[^3H]glucose (100,000 cpm) and liposomes consisting of 85 μg of octanoylsphingosine, 570 μg of dioleoylphosphatidylcholine, and 100 μg of sodium sulfatide in a 200 μL reaction mixture and kept for 1 h at 37° C.

GCS in WT-MDCKII cells = GCS in WT-MDCKII cells (Canis lupus familiaris, UniProt A0A8I3MXG6); test: Inhibition of GlcCer production in whole wild-type MDCKII cells; type: cell-based, canine; details: 24 hours, read-out: WT-MDCK IC50
Experimental: (§1) Parental (WT-)MDCKII cells and MDCKII cells retrovirally transduced with human MDR-1 cDNA were obtained from the Netherlands Cancer Institute. Both cell lines were routinely maintained in medium consisting of Opti-MEM/F12 (1:1), 5% FBS, 100 U/mL of penicillin, 100 μg/mL streptomycin and […] L-glutamine. MDCKII cells were newly thawed from frozen ampules every two months.
(§2) Stock solutions of water-insoluble glycosphingolipid inhibitors (100 mM) were prepared by dissolving each inhibitor into 100% ethanol as previously described (3). The inhibitor-ethanol solutions then were diluted 50× into 2 mM delipidated bovine serum albumin-phosphate buffered saline solution to make water-soluble glycosphingolipid inhibitor-bovine serum albumin complexes. The inhibitor-bovine serum album complexes were sterile-filtered and stored at −20° C. Prior to use, portions of the inhibitor-bovine serum albumin complexes were further diluted with Opti-F12 to make treatment solutions. Equal amounts of bovine serum albumin and ethanol were added into the control cultures. WT and MDR1-MDCKII cells (5×10^5) were seeded into 10-cm culture dishes containing 10 ml of Opti-F12 with 5% FBS.
(§3) Following inhibitor treatment, whole cellular lipids of wild type and MDR1-MDCKII cells were extracted as previously described in detail (10). Briefly, cells were washed with ice-cold phosphate buffered saline, fixed by methanol, and collected with rubber scraper. Chloroform was then added to yield a theoretical ratio of chloroform:methanol:water at 1:2:0.8 (v/v/v) to form a mono-phase. Cell debris and proteins were removed by centrifugation at 2200×g for 30 min. The supernatants were portioned by adding chloroform and 0.9% NaCl. The lower organic phases containing neutral glycosphingolipids lipids were washed with methanol and 0.9% NaCl, and subjected to base- and acid-hydrolysis (10). A portion of purified glycosphingolipids normalized to 100 nmol of total phospholipids was analyzed by high performance thin layer chromatography. The thin layer chromatography separations were processed twice. The plate pretreated with 1% sodium borate was first developed in a solvent system consisting of chloroform/methanol (98/2, v/v). After air drying, the plate was then developed in a solvent system containing chloroform/methanol/water (70/30/4, v/v/v). The levels of glucosylceramide were detected by charring with 8% cupric sulfate in 8% phosphoric acid, and quantified by densitometric scanning using ImageJ, NIH Image.

GCS in MDR1-MDCKII cells = GCS in MDR1-MDCKII cells (Canis lupus familiaris, UniProt A0A8I3MXG6); details: read-out: MDR1-MDCKII IC50; MDCKII cells stably expressing human MDR1, 24 hours
Experimental: as §1, §2, §3

[3] = Brain and plasma drug levels after single oral dose in CD-1 mice; type: in vivo, mouse
[4] = test system: brain glucosylceramide (GlcCer); test: Brain glucosylceramide (GlcCer) content in WT mice; type: in vivo, mouse; details: for reduction in brain GlcCer levels / reduction of brain GlcCer levels: WT mice
Experimental: Lipid extractions of liver, kidney, and brain were performed as previously described (7). Briefly, frozen liver (about 0.5 g), two kidneys (about 0.3 g) and whole brain (about 0.4 g) were individually homogenized in sucrose buffer (250 mM sucrose, pH 7.4, 10 mM HEPES and 1 mM EDTA), at 0.2 g tissue/1 mL of sucrose buffer, with a Tri-R homogenizer. Each 0.8 mL of homogenate was mixed with 2 mL of methanol and 1 mL of chloroform, bath sonicated for 1 min and incubated at room temperature for 1 h. Tissue debris were removed by centrifugation at 2,400× gravity for 30 min. The pellets were re-extracted by mixing with 1 mL of methanol, 0.5 mL of chloroform and 0.4 mL of 0.9% NaCl (chloroform/methanol/0.9% NaCl, 1:2:0.8), incubated at room temperature for 1 h and centrifuged at 2,400× gravity for another 30 min. Two extracts were combined and mixed with 4.5 mL of chloroform and 1.2 mL of 0.9% NaCl (chloroform/methanol/0.9% NaCl, 2:1:0.8). After centrifugation at 800× gravity for 5 min, lower layer was washed with 3 mL of methanol and 2.4 mL of 0.9% NaCl. Second washing was carried with 3 mL of methanol, 2 mL of water and 0.4 mL of 0.9% NaCl followed by a 5 min centrifugation at 800× gravity. The resultant lower phase was collected and dried under a stream of N2 gas.
The analysis of neutral glycosphingolipids from mouse liver, kidney, and brain was processed after alkaline methanolysis. […] lipids were incubated with 2 mL of chloroform and 1 ml of 0.21N NaOH in methanol for 2 h (kidney) or 7.5 h (liver and brain) at RT. The lipid extract was normalized to 0.5 μmol of total phospholipid phosphate (liver and kidney) or 2 μmol of total phospholipid phosphate (brain) for high performance thin layer chromatography analysis. After alkaline methanolysis, the brain lipids were passed through a silica gel column (7). Borate-impregnated thin layer chromatography plates were developed in a two solvent system. Plates were first developed in chloroform/methanol (98:2, v/v). The plates loaded with kidney and liver lipids were then developed in chloroform/methanol/water (64:24:4, v/v/v), and brain lipids were further separated in chloroform/methanol/water (60:30:6, v/v/v). GlcCer levels were quantified by comparison to known standards.
In another test, a dose ranging study for brain glucosylceramide (GlcCer) content was performed using the compound of Example 7. FIG. 1 contains bar graphs showing the GluCer levels in treated and untreated WT mouse brain at low doses for 3 days (FIG. 1A) and high doses for 3 days (FIG. 1B). […] FIG. 1C compares the GlcCer levels in treated and untreated WT mouse brain for 7 days comparing oral gavage vs. IP injection. […] FIG. 2 contains comparative brain GlcCer level data obtained with the Control Compound, dosed at 10 mg/kg IP (FIG. 2A) or 60 mg/kg IP (FIG. 2B) in WT mice for 3 days.

[5] = mouse, brain, single 20 mg/kg PO, female CD-1 mice, read-out: Drug level in brain
[6] = mouse, plasma, single 20 mg/kg PO, female CD-1 mice, read-out: Drug level in plasma
[7] = mouse, plasma, single 20 mg/kg PO, female CD-1 mice, 7 hrs, read-out: Drug level in plasma

glucosylceramide synthase (GCS), sequence (A0A8I3MXG6 1-394): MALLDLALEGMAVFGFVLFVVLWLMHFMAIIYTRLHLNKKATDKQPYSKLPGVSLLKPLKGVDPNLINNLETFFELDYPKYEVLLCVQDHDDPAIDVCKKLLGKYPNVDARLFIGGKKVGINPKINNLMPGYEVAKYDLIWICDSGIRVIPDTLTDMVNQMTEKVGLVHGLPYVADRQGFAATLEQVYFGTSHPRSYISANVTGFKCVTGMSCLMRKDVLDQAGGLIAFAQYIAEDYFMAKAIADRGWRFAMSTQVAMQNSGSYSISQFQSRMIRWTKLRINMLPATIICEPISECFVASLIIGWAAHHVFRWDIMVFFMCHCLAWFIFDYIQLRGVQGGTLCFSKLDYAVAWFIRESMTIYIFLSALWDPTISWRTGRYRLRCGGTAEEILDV
GCS in WT-MDCKII cells, sequence (A0A8I3MXG6 1-394): as above
GCS in MDR1-MDCKII cells, sequence (A0A8I3MXG6 1-394): as above

Molecule `COc1ccc([C@@H](O)[C@@H](CN2CCCC2)NC(=O)CC2Cc3ccccc3C2)cc1F` [Example 1, 2-(2,3-dihydro-1H-inden-2-yl)-N-((1R,2R)-1-(3-fluoro-4-methoxyphenyl)-1-hydroxy-3-(pyrrolidin-1-yl)propan-2-yl)acetamide] has a half-life [1] of 2.7 min.

For `COc1ccc([C@@H](O)[C@@H](CN2CCCC2)NC(=O)CC2Cc3ccccc3C2)cc1` [Example 2, 2-(2,3-dihydro-1H-inden-2-yl)-N-((1R,2R)-1-hydroxy-1-(4-methoxyphenyl)-3-(pyrrolidin-1-yl)propan-2-yl)acetamide], the half-life [1] was 5.5 min.

For `COc1cccc([C@@H](O)[C@@H](CN2CCCC2)NC(=O)CC2Cc3ccccc3C2)c1` [Example 3, 2-(2,3-dihydro-1H-inden-2-yl)-N-((1R,2R)-1-hydroxy-1-(3-methoxyphenyl)-3-(pyrrolidin-1-yl)propan-2-yl)acetamide], the half-life [1] was 4 min.

With `COc1ccccc1[C@@H](O)[C@@H](CN1CCCC1)NC(=O)CC1Cc2ccccc2C1` [Example 4, 2-(2,3-dihydro-1H-inden-2-yl)-N-((1R,2R)-1-hydroxy-1-(2-methoxyphenyl)-3-(pyrrolidin-1-yl)propan-2-yl)acetamide] the IC50 [2] was 44 nM, the IC50 (GCS in WT-MDCKII cells) was 5 nM and the IC50 (GCS in MDR1-MDCKII cells) was 56 nM.

For `O=C(CC1Cc2ccccc2C1)N[C@H](CN1CCCC1)[C@H](O)c1ccc(OC(F)(F)F)cc1` [Example 7, 2-(2,3-dihydro-1H-inden-2-yl)-N-((1R,2R)-1-hydroxy-3-(pyrrolidin-1-yl)-1-(4-(trifluoromethoxy)phenyl)propan-2-yl)acetamide], the concentration at 1 h [3, 5] was 193 ng/g, the concentration at 7 h ([3]; mouse, brain, single 20 mg/kg PO, female CD-1 mice, 7 hrs, read-out: Drug level in brain) was 68 ng/g and the concentration at 1 h [3, 6] was 463 ng/g. The concentration at 7 h [3, 7] was 52 ng/g, the half-life [1] was 37 min and the “reduction in brain GlcCer levels” value ([4]; 1 mg/kg IP, 3 days) was “Near maximal reduction”. The “reduction of brain GlcCer levels” value ([4]; 1 mg/kg IP, 3 days) was 35% and the “reduction in brain GlcCer levels” value ([4]; oral dosing at 10 mg/kg, 7 days) was “significant reductions”.

Work on `O=C(CC1Cc2ccccc2C1)N[C@H](CN1CCCC1)[C@H](O)c1ccc(OCC2CC2)cc1` [Example 11, N-((1R,2R)-1-(4-(cyclopropylmethoxy)phenyl)-1-hydroxy-3-(pyrrolidin-1-yl)propan-2-yl)-2-(2,3-dihydro-1H-inden-2-yl)acetamide] yielded an IC50 [2] of 46 nM, an IC50 (GCS in WT-MDCKII cells) of 1 nM and an IC50 (GCS in MDR1-MDCKII cells) of 0.84 nM.

In the case of `O=C(CC1Cc2ccccc2C1)N[C@H](CN1CCCC1)[C@H](O)c1ccc(OCC(F)(F)F)cc1` [Example 12, 2-(2,3-dihydro-1H-inden-2-yl)-N-((1R,2R)-1-hydroxy-3-(pyrrolidin-1-yl)-1-(4-(2,2,2-trifluoroethoxy)phenyl)propan-2-yl)acetamide], the half-life [1] is reported as 11 min.

With `O=C(CC1Cc2ccccc2C1)N[C@H](CN1CCCC1)[C@H](O)c1cccc(OC(F)(F)F)c1` [Example 14, 2-(2,3-dihydro-1H-inden-2-yl)-N-((1R,2R)-1-hydroxy-3-(pyrrolidin-1-yl)-1-(3-(trifluoromethoxy)phenyl)propan-2-yl)acetamide] the IC50 (GCS in WT-MDCKII cells) was 50 nM.

Work on `O=C(CC1Cc2ccccc2C1)N[C@H](CN1CC[C@@H](F)C1)[C@H](O)c1ccc(OC(F)(F)F)cc1` [Example 16, 2-(2,3-dihydro-1H-inden-2-yl)-N-((1R,2R)-3-((R)-3-fluoropyrrolidin-1-yl)-1-hydroxy-1-(4-(trifluoromethoxy)phenyl)propan-2-yl)acetamide] yielded an IC50 [2] greater than 300 nM, an IC50 (GCS in WT-MDCKII cells) of 23 nM and an IC50 (GCS in MDR1-MDCKII cells) of 47 nM.

For `O=C(CC1Cc2ccccc2C1)N[C@H](CN1CCC1)[C@H](O)c1ccc(OC(F)(F)F)cc1` [Example 17, N-((1R,2R)-3-(azetidin-1-yl)-1-hydroxy-1-(4-(trifluoromethoxy)phenyl)propan-2-yl)-2-(2,3-dihydro-1H-inden-2-yl)acetamide], the half-life [1] was greater than 60 min.

`O=C(CC1Cc2ccccc2C1)N[C@H](CN1CCCC1)[C@H](O)c1ccc2c(c1)OCCO2` [control] showed an IC50 (GCS in WT-MDCKII cells) of 15 nM, an IC50 (GCS in MDR1-MDCKII cells) of 24 nM and a Kp at 1 h ([3]; female, mouse, brain/plasma, 20 mg/kg, single oral dose, CD-1 mice, at one hour, read-out: brain/plasma ratio) of 0.25. It also gave a concentration at 1 h [3, 5] of 5 ng/g, a concentration at 1 h [3, 6] of 20 ng/g and a concentration at 7 h [3, 7] of 9 ng/g. For the same molecule, the “Drug level in brain” value ([3]; single 20 mg/kg PO, female CD-1 mice, 7 hrs) was “BLQ*”, the half-life [1] was 1.5 min and the “reduction of brain GlcCer levels” value ([4]; 60 mg/kg IP, 3 days) was 17%.

For `CCCCCCCC(=O)N[C@H](CN1CCCC1)[C@H](O)c1ccc2c(c1)OCCO2` [eliglustat tartrate, N-((1R,2R)-1-(2,3-dihydrobenzo-[b][1,4]dioxin-6-yl)-1-hydroxy-3-(pyrrolidin-1-yl)propan-2-yl)octanamide, reference compound], the “decrease in brain glucosylceramide content” value ([4]; mice, intraperitoneal administration for 3 days) was “not seen”.
